Test results: patent publication US20150306269A1, “UPSTREAM HYDROGEN PEROXIDE […]” (The Vincit Company, LLC, priority 2014, published 2015)

Legend:
bacteria [1] = experiment: Egg shell testing: total plate count of inoculated egg shells after exposure to treated air; assay type: cell-based; conditions: half egg shells inoculated in broth with about seven log bacteria; 10 minutes exposure; nebulized 3% hydrogen peroxide; swab plated on Tryptic Soy Agar, 24 hours
Experimental: In preliminary testing, twelve store-bought fresh eggs were prepared by blowing out the contents and cutting the egg shells in half. Twenty-four half shells were inoculated by submersion in a broth solution containing about a seven log concentration bacteria. Egg shells were removed and allowed to air dry. […] The final six shells were designated the control group and were exposed only to untreated air circulated though the sanitation system. The twenty-four half shells were allowed to be exposed to their respective situation for a period of 10 minutes.
Immediately following treatment, approximately 1 square inch swab samples were taken from the surface of each egg shell then serially diluted and plated on Tryptic Soy Agar and incubated for 24 hours to obtain a total plate count.

bacteria [2] = experiment: Chicken wings: total plate count of inoculated chicken wing skin after exposure to treated air; assay type: cell-based; conditions: chicken wings inoculated in Tryptic Soy Broth with about seven log bacteria; maximum over 10, 30, 45 and 60 seconds treatment; nebulized 3% hydrogen peroxide; Tryptic Soy Agar, 24 hours
Experimental: Similar testing was performed on chicken wings. Twenty-four store-bought chicken wings were prepared by submersing them in a Tryptic Soy Broth broth solution containing about a seven log concentration of bacteria. The wings were removed and allowed to air dry. The wings were separated into groups of six, one group designated to be exposed to air running through the air sanitation system containing only nebulized 3% hydrogen peroxide, another group exposed to UV light-generated radicals, and the last group exposed to both 3% H2O2 and UV radicals. The final six wings were designated the control group and were exposed only to untreated air circulated though the sanitation system.
Immediately following treatment at times of 10 seconds, 30 seconds, 45 seconds and 60 seconds, approximately 1 square inch of skin on each wing was swabbed with moistened sample sponges. The sponges were stomached in phosphate buffer solution for 2 minutes, then the buffer solution was serially diluted and plated on Tryptic Soy Agar and incubated for 24 hours to obtain a total plate count.

Compound: OO [H2O2, hydrogen peroxide]
- log10 reduction (total plate count) (bacteria [1]): 1.5 log10
- maximum log10 reduction (total plate count) (bacteria [2]): 0.9 log10
